What was measured:
α-(1,6)-ManTs = assay: Mannosyl acceptor; format: biochemical, Mycobacterium smegmatis; conditions: up to 4 mM
[1] = tested on: mycobacterial α-(1,6)-mannosyltransferases; assay: In vitro PPM-dependent α-; format: biochemical, Mycobacterium smegmatis; conditions: inhibitor 1.0 mM; acceptor 0.2 mM; several independent experiments

OCC[C@H]1O[C@H](Cn2cc([C@H]3O[C@H](CO)[C@@H](O)[C@H](O)[C@@H]3O)nn2)[C@@H](O)[C@H](O)[C@@H]1O [compound 31, 3,7-Anhydro-2,8-dideoxy-8-[4-(α-D-mannopyranosyl)-1H-1,2,3-triazol-1-yl]-D-glycero-D-talo-octitol]
mannosyl acceptor activity (α-(1,6)-ManTs): poor mannosyl acceptor

C[C@H]1O[C@H](c2cn(C[C@H]3O[C@@H](c4cn(C[C@H]5O[C@@H](c6cn(C[C@H]7O[C@@H](c8cn(C[C@H]9O[C@@H](c%10cn(C[C@H]%11O[C@@H](c%12cn(C[C@H]%13O[C@H](c%14cn(C[C@H]%15O[C@H](CCO)[C@@H](O)[C@@H](O)[C@@H]%15O)nn%14)[C@@H](O)[C@@H](O)[C@@H]%13O)nn%12)[C@@H](O)[C@@H](O)[C@@H]%11O)nn%10)[C@@H](O)[C@@H](O)[C@@H]9O)nn8)[C@@H](O)[C@@H](O)[C@@H]7O)nn6)[C@@H](O)[C@@H](O)[C@@H]5O)nn4)[C@@H](O)[C@@H](O)[C@@H]3O)nn2)[C@@H](O)[C@@H](O)[C@@H]1O [TOM-8]
inhibition of α-(1,6)-mannosyltransferase activity [1]: ca. 95%

C[C@H]1O[C@H](c2cn(C[C@H]3O[C@@H](c4cn(C[C@H]5O[C@@H](c6cn(C[C@H]7O[C@@H](c8cn(C[C@H]9O[C@H](c%10cn(C[C@H]%11O[C@H](CCO)[C@@H](O)[C@@H](O)[C@@H]%11O)nn%10)[C@@H](O)[C@@H](O)[C@@H]9O)nn8)[C@@H](O)[C@@H](O)[C@@H]7O)nn6)[C@@H](O)[C@@H](O)[C@@H]5O)nn4)[C@@H](O)[C@@H](O)[C@@H]3O)nn2)[C@@H](O)[C@@H](O)[C@@H]1O [TOM-6]
inhibition of α-(1,6)-mannosyltransferase activity [1]: ca. 95%

— paper PMC3833056 (The Journal of organic chemistry, 2010)
